Reference: paper PMC12150326 (The Journal of Organic Chemistry, 2025)
Like-named read-outs stand apart in the source and are kept apart here.

How the values were obtained:
Type in all cases: cell-based, human
SN12C = details: for GI50: Homo sapiens
Outline: (§1)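 Compounds were tested in the NCI 60-cell-line panel at five concentrations: 100 μM, 10 μM, 1 μM, 0.1 μM and 0.01 μM. For COMPARE analysis, TGI response levels were matched against those of established tubulin inhibitors previously run in the same screen.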

SK-MEL-28 = test system: SK-MEL-28
Outline: as §1

SF-539 = details: for GI50: Homo sapiens
Outline: as §1

A498 = details: for GI50: Homo sapiens
Outline: as §1

NCI-H23 = details: for GI50: Homo sapiens
Outline: as §1

KM12 = details: for Log10GI50 / Log10LC50 / Log10TGI: KM12
Outline: (§2)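 Both axial enantiomers of the parent and of the iso series were evaluated in the NCI cancer cell panel at doses of 100 μM, 10 μM, 1 μM, 0.1 μM and 0.01 μM.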

LOX IMVI = details: for GI50: Homo sapiens
Outline: as §2

786-0 = details: for GI50: Homo sapiens
Outline: as §1

OVCAR-5 = details: for GI50: Homo sapiens
Outline: as §1

HOP-92 = details: for GI50: Homo sapiens
Outline: as §1

DU-145 = test system: DU-145
Outline: as §2

SF-268 = test system: SF-268
Outline: as §2

HOP-62 = details: for GI50: Homo sapiens
Outline: as §2

SNB-19 = details: for GI50: Homo sapiens
Outline: as §2

COc1cc(C)c(-c2ccc(OC)c(=O)cc2C)c(OC)c1OC (single isomer, unassigned) [(aR)-6]
Log10GI50 (SN12C): -5.46 Molar | Log10LC50 (SN12C): > -4.00 Molar | Log10TGI (SN12C): > -4.00 Molar | GI50 (SN12C): 3.47 µM | Log10GI50 (SN12C; listed as (aR)-DM-MTC): -5.46 Molar | Log10LC50 (SK-MEL-28): > -4.00 Molar | Log10TGI (SK-MEL-28): > -4.00 Molar | Log10GI50 (SF-539): -5.65 Molar | Log10LC50 (SF-539): > -4.00 Molar | Log10TGI (SF-539): > -4.00 Molar | GI50 (SF-539): 2.24 µM | Log10GI50 (SF-539; listed as (aR)-DM-MTC): -5.65 Molar | Log10GI50 (A498): -6.10 Molar | Log10LC50 (A498): > -4.00 Molar | Log10TGI (A498): -5.34 Molar | GI50 (A498): 0.79 µM | Log10GI50 (A498; listed as (aR)-DM-MTC): -6.1 Molar | Log10GI50 (NCI-H23): -5.39 Molar | Log10LC50 (NCI-H23): > -4.00 Molar | Log10TGI (NCI-H23): > -4.00 Molar | GI50 (NCI-H23): 4.07 µM | Log10GI50 (NCI-H23; listed as (aR)-DM-MTC): -5.39 Molar | GI50 (KM12; Homo sapiens, KM12 (printed KM29)): 1.62 µM | Log10GI50 (KM12): -5.79 Molar | Log10LC50 (KM12): > -4.00 Molar | Log10TGI (KM12): > -4.00 Molar | Log10GI50 (KM12; listed as (aR)-DM-MTC): -5.79 Molar | Log10GI50 (LOX IMVI): -5.69 Molar | Log10LC50 (LOX IMVI): > -4.00 Molar | Log10TGI (LOX IMVI): > -4.00 Molar | GI50 (LOX IMVI): 2.04 µM | Log10GI50 (LOX IMVI; listed as (aR)-DM-MTC): -5.69 Molar | Log10GI50 (786-0): -5.35 Molar | Log10LC50 (786-0): > -4.00 Molar | Log10TGI (786-0): > -4.00 Molar | GI50 (786-0): 4.47 µM | Log10GI50 (786-0; listed as (aR)-DM-MTC): -5.35 Molar | Log10GI50 (OVCAR-5): -5.36 Molar | Log10LC50 (OVCAR-5): > -4.00 Molar | Log10TGI (OVCAR-5): > -4.00 Molar | GI50 (OVCAR-5): 4.37 µM | Log10GI50 (OVCAR-5; listed as (aR)-DM-MTC): -5.36 Molar | Log10GI50 (HOP-92): -5.45 Molar | Log10LC50 (HOP-92): > -4.00 Molar | Log10TGI (HOP-92): > -4.00 Molar | GI50 (HOP-92): 3.55 µM | Log10GI50 (HOP-92; listed as (aR)-DM-MTC): -5.45 Molar | Log10GI50 (DU-145): -5.45 Molar | Log10LC50 (DU-145): > -4.00 Molar | Log10TGI (DU-145): > -4.00 Molar | GI50 (DU-145; Homo sapiens): 3.55 µM | Log10GI50 (DU-145; listed as (aR)-DM-MTC): -5.45 Molar | Log10GI50 (SF-268): -5.26 Molar | Log10LC50 (SF-268): > -4.00 Molar | Log10TGI (SF-268): > -4.00 Molar | GI50 (SF-268; Homo sapiens): 5.5 µM | Log10GI50 (SF-268; listed as (aR)-DM-MTC): -5.26 Molar | Log10GI50 (HOP-62): -5.42 Molar | Log10LC50 (HOP-62): > -4.00 Molar | Log10TGI (HOP-62): > -4.00 Molar | GI50 (HOP-62): 3.8 µM | Log10GI50 (HOP-62; listed as (aR)-DM-MTC): -5.42 Molar | Log10GI50 (SNB-19): -5.53 Molar | Log10LC50 (SNB-19): > -4.00 Molar | Log10TGI (SNB-19): > -4.00 Molar | GI50 (SNB-19): 2.95 µM | Log10GI50 (SNB-19; listed as (aR)-DM-MTC): -5.53 Molar

COc1cc(C)c(-c2ccc(OC)c(=O)cc2C)c(OC)c1OC (single isomer, unassigned) [(aS)-6]
Log10GI50 (SN12C): > -4.00 Molar | Log10LC50 (SN12C): > -4.00 Molar | Log10TGI (SN12C): > -4.00 Molar | Log10GI50 (SK-MEL-28): > -4.00 Molar | Log10LC50 (SK-MEL-28): > -4.00 Molar | Log10TGI (SK-MEL-28): > -4.00 Molar | Log10GI50 (SF-539): > -4.00 Molar | Log10LC50 (SF-539): > -4.00 Molar | Log10TGI (SF-539): > -4.00 Molar | Log10GI50 (A498): > -4.00 Molar | Log10LC50 (A498): > -4.00 Molar | Log10TGI (A498): > -4.00 Molar | Log10GI50 (NCI-H23): > -4.00 Molar | Log10LC50 (NCI-H23): > -4.00 Molar | Log10TGI (NCI-H23): > -4.00 Molar | Log10GI50 (KM12): > -4.00 Molar | Log10LC50 (KM12): > -4.00 Molar | Log10TGI (KM12): > -4.00 Molar | Log10GI50 (LOX IMVI): > -4.00 Molar | Log10LC50 (LOX IMVI): > -4.00 Molar | Log10TGI (LOX IMVI): > -4.00 Molar | Log10GI50 (786-0): > -4.00 Molar | Log10LC50 (786-0): > -4.00 Molar | Log10TGI (786-0): > -4.00 Molar | Log10GI50 (OVCAR-5): > -4.00 Molar | Log10LC50 (OVCAR-5): > -4.00 Molar | Log10TGI (OVCAR-5): > -4.00 Molar | Log10GI50 (HOP-92): -4.65 Molar | Log10LC50 (HOP-92): > -4.00 Molar | Log10TGI (HOP-92): > -4.00 Molar | Log10GI50 (DU-145): > -4.00 Molar | Log10LC50 (DU-145): > -4.00 Molar | Log10TGI (DU-145): > -4.00 Molar | Log10GI50 (SF-268): > -4.00 Molar | Log10LC50 (SF-268): > -4.00 Molar | Log10TGI (SF-268): > -4.00 Molar | Log10GI50 (HOP-62): > -4.00 Molar | Log10LC50 (HOP-62): > -4.00 Molar | Log10TGI (HOP-62): > -4.00 Molar | Log10GI50 (SNB-19): > -4.00 Molar | Log10LC50 (SNB-19): > -4.00 Molar | Log10TGI (SNB-19): > -4.00 Molar

COc1cc(C)c(-c2ccc(=O)c(OC)cc2C)c(OC)c1OC (single isomer, unassigned) [(aS)-iso-6]
Log10GI50 (SN12C): -4.42 Molar | Log10LC50 (SN12C): > -4.00 Molar | Log10TGI (SN12C): > -4.00 Molar | GI50 (SN12C): 38 µM | Log10GI50 (SN12C; […]): -4.42 Molar | Log10GI50 (SK-MEL-28): > -4.00 Molar | Log10LC50 (SK-MEL-28): > -4.00 Molar | Log10TGI (SK-MEL-28): > -4.00 Molar | Log10GI50 (SF-539): -4.59 Molar | Log10LC50 (SF-539): > -4.00 Molar | Log10TGI (SF-539): > -4.00 Molar | GI50 (SF-539): 29.5 µM | Log10GI50 (SF-539; […]): -4.53 Molar | Log10GI50 (A498): -4.85 Molar | Log10LC50 (A498): > -4.00 Molar | Log10TGI (A498): -4.28 Molar | GI50 (A498): 14.1 µM | Log10GI50 (A498; […]): -4.85 Molar | Log10GI50 (NCI-H23): -4.33 Molar | Log10LC50 (NCI-H23): > -4.00 Molar | Log10TGI (NCI-H23): > -4.00 Molar | GI50 (NCI-H23): 46.8 µM | Log10GI50 (NCI-H23; […]): -4.33 Molar | Log10GI50 (LOX IMVI): -5.18 Molar | Log10LC50 (LOX IMVI): > -4.00 Molar | Log10TGI (LOX IMVI): > -4.00 Molar | GI50 (LOX IMVI): 6.61 µM | Log10GI50 (LOX IMVI; […]): -5.18 Molar | Log10GI50 (786-0): -4.33 Molar | Log10LC50 (786-0): > -4.00 Molar | Log10TGI (786-0): > -4.00 Molar | GI50 (786-0): 46.8 µM | Log10GI50 (786-0; […]): -4.33 Molar | Log10GI50 (OVCAR-5): -4.38 Molar | Log10LC50 (OVCAR-5): > -4.00 Molar | Log10TGI (OVCAR-5): > -4.00 Molar | GI50 (OVCAR-5): 41.7 µM | Log10GI50 (OVCAR-5; […]): -4.38 Molar | Log10GI50 (HOP-92): -4.99 Molar | Log10LC50 (HOP-92): > -4.00 Molar | Log10TGI (HOP-92): > -4.00 Molar | GI50 (HOP-92): 10.2 µM | Log10GI50 (HOP-92; […]): -4.99 Molar | Log10GI50 (HOP-62): -4.46 Molar | Log10LC50 (HOP-62): > -4.00 Molar | Log10TGI (HOP-62): > -4.00 Molar | GI50 (HOP-62): 34.7 µM | Log10GI50 (HOP-62; […]): -4.46 Molar | Log10GI50 (SNB-19): -4.53 Molar | Log10LC50 (SNB-19): > -4.00 Molar | Log10TGI (SNB-19): > -4.00 Molar | GI50 (SNB-19): 5.37 µM | Log10GI50 (SNB-19; […]): -5.27 Molar
